Patent publication US8946405B2, “Controlled release from solid supports” (Prolynx LLC, priority 2010, dated 2015)

Experiments:
[1] = Hydrolysis of carbamate in 50% human serum; format: in vitro ADME; settings: after 1 week at 37° C.
Text: In general, compared to C—H, a) electron withdrawing groups at R^1 increase the rate; b) alkyl groups at R^5 increase the rate; and c) aryl moieties at R^5 decrease the rate.

[2] = Release of Nε-2,4-dinitrophenyl-L-lysine from DNP-Lys carbamates (β-elimination), HPLC; format: physicochemical; settings: after 5 days at 37° C. and pH 7.4
Protocol: A series of linker scaffolds having a range of functional groups as potential pKa modulators (substituted aromatics, ketones, nitriles, sulfones) were designed, prepared and linked via carbamate bonds to Ne-2,4-dinitrophenyl-L-lysine (Ne-DNP-Lys) for evaluation of release rates. DNP-Lys was chosen as the released moiety as is water soluble and is a strong chromophore to permit HPLC-UV analysis.
The rates of release of Nε-2,4-dinitrophenyl-L-lysine from these compounds were determined at pH 7.4 or pH 8.3, 37° C., by HPLC analysis. Kinetic analyses of the release reactions were performed by HPLC (C18; linear MeOH/water+0.5% HOAc gradient) using a UV/vis monitor at 350 nm. The areas under the Lys(DNP) (“P”) and starting material (“S”) peaks were integrated to determine extent of reaction (“R”) as R=P/(S+P). Reaction rates were calculated from the slope the line obtained by linear regression analysis of a plot of ln(1-R) versus time.

O=C(N[C@@H](CCCCNc1ccc([N+](=O)[O-])cc1[N+](=O)[O-])C(=O)O)OCc1ccccc1 [O-benzyl-N—(Nε-2,4-dinitrophenyl-L-lysine)-carbamate]
hydrolysis in 50% human serum [1]: no detectable hydrolysis
cleavage (estimated detection limit) [2]: < 0.25%
release of Nε-2,4-dinitrophenyl-L-lysine [2]: no observable release
